Assay: (§1) The drug is tested on Z-010 corresponding to metagenome with ENA study accession number: PRJEB37062 and ENA sample accession number: ERS12561810 for biotransformation under anaerobic condition. The drug concentrations were measured over 9 timepoints collected between 0 and 24 hours of incubation by liquid-chromatography-coupled mass spectrometry (LC–MS)
Details: 2 µM
Also: call rule not given here.

Bacterial Biotransformation | Structure (SMILES)
Compound metabolized | C#C[C@]1(OC(C)=O)CC[C@H]2[C@@H]3CCC4=CC(=O)CC[C@@H]4[C@H]3CC[C@@]21C [NORETHINDRONE ACETATE]

Assay: (§2) The drug is tested on Z-018 corresponding to pig gut metagenome with ENA study accession number: PRJEB37062 and ENA sample accession number: ERS12561817 for biotransformation under anaerobic condition. The drug concentrations were measured over 9 timepoints collected between 0 and 24 hours of incubation by liquid-chromatography-coupled mass spectrometry (LC–MS)
Details: 2 µM

Structure (SMILES) | Bacterial Biotransformation
CN1[C@@H]2CC[C@H]1C[C@@H](OC(=O)[C@H](CO)c1ccccc1)C2 [HYOSCYAMINE] | Compound NOT metabolized
C#C[C@]1(OC(C)=O)CC[C@H]2[C@@H]3CCC4=CC(=O)CC[C@@H]4[C@H]3CC[C@@]21C [NORETHINDRONE ACETATE] | Compound metabolized

Assay: as §2, with “WLS-027” for “Z-018”, “human” for “pig”, “ERS12561744” for “ERS12561817”
Details: 2 µM

Structure (SMILES) | Bacterial Biotransformation
CN1[C@@H]2CC[C@H]1C[C@@H](OC(=O)[C@H](CO)c1ccccc1)C2 [HYOSCYAMINE] | Compound NOT metabolized
C#C[C@]1(OC(C)=O)CC[C@H]2[C@@H]3CCC4=CC(=O)CC[C@@H]4[C@H]3CC[C@@]21C [NORETHINDRONE ACETATE] | Compound metabolized

Assay: as §1, with “Z-021” for “Z-010”, “ERS12561820” for “ERS12561810”
Details: 2 µM

Structure (SMILES) | Bacterial Biotransformation
CN1[C@@H]2CC[C@H]1C[C@@H](OC(=O)[C@H](CO)c1ccccc1)C2 [HYOSCYAMINE] | Compound NOT metabolized
C#C[C@]1(OC(C)=O)CC[C@H]2[C@@H]3CCC4=CC(=O)CC[C@@H]4[C@H]3CC[C@@]21C [NORETHINDRONE ACETATE] | Compound metabolized

Details: human gut metagenome, 24 h, 2 µM

Structure (SMILES) | Bacterial Biotransformation
CN1[C@@H]2CC[C@H]1C[C@@H](OC(=O)[C@H](CO)c1ccccc1)C2 [HYOSCYAMINE] | Compound NOT metabolized
C#C[C@]1(OC(C)=O)CC[C@H]2[C@@H]3CCC4=CC(=O)CC[C@@H]4[C@H]3CC[C@@]21C [NORETHINDRONE ACETATE] | Compound metabolized

Assay: as §2, with “WLS-086” for “Z-018”, “human” for “pig”, “ERS12561752” for “ERS12561817”
Details: 2 µM

Structure (SMILES) | Bacterial Biotransformation
CN1[C@@H]2CC[C@H]1C[C@@H](OC(=O)[C@H](CO)c1ccccc1)C2 [HYOSCYAMINE] | Compound metabolized
C#C[C@]1(OC(C)=O)CC[C@H]2[C@@H]3CCC4=CC(=O)CC[C@@H]4[C@H]3CC[C@@]21C [NORETHINDRONE ACETATE] | Compound NOT metabolized

Details: human gut metagenome, 24 h, 2 µM
Remark: another data set of the same source

Bacterial Biotransformation | Structure (SMILES)
Compound metabolized | C#C[C@]1(OC(C)=O)CC[C@H]2[C@@H]3CCC4=CC(=O)CC[C@@H]4[C@H]3CC[C@@]21C [NORETHINDRONE ACETATE]

Assay: as §2, with “WLS-039” for “Z-018”, “human” for “pig”, “ERS12561746” for “ERS12561817”
Details: 2 µM

Bacterial Biotransformation | Structure (SMILES)
Compound metabolized | C#C[C@]1(OC(C)=O)CC[C@H]2[C@@H]3CCC4=CC(=O)CC[C@@H]4[C@H]3CC[C@@]21C [NORETHINDRONE ACETATE]

Assay: as §2, with “Z-014” for “Z-018”, “rat” for “pig”, “ERS12561814” for “ERS12561817”
Details: 2 µM

Structure (SMILES) | Bacterial Biotransformation
CN1[C@@H]2CC[C@H]1C[C@@H](OC(=O)[C@H](CO)c1ccccc1)C2 [HYOSCYAMINE] | Compound NOT metabolized

Assay: as §2, with “Z-019” for “Z-018”, “rat” for “pig”, “ERS12561818” for “ERS12561817”
Details: 2 µM

Structure (SMILES) | Bacterial Biotransformation
CN1[C@@H]2CC[C@H]1C[C@@H](OC(=O)[C@H](CO)c1ccccc1)C2 [HYOSCYAMINE] | Compound NOT metabolized
C#C[C@]1(OC(C)=O)CC[C@H]2[C@@H]3CCC4=CC(=O)CC[C@@H]4[C@H]3CC[C@@]21C [NORETHINDRONE ACETATE] | Compound metabolized

Details: human gut metagenome, 24 h, 2 µM
Remark: another data set of the same source

Bacterial Biotransformation | Structure (SMILES)
Compound metabolized | C#C[C@]1(OC(C)=O)CC[C@H]2[C@@H]3CCC4=CC(=O)CC[C@@H]4[C@H]3CC[C@@]21C [NORETHINDRONE ACETATE]

Assay: as §2, with “WLS-170” for “Z-018”, “human” for “pig”, “ERS12561762” for “ERS12561817”
Details: 2 µM

Structure (SMILES) | Bacterial Biotransformation
CN1[C@@H]2CC[C@H]1C[C@@H](OC(=O)[C@H](CO)c1ccccc1)C2 [HYOSCYAMINE] | Compound metabolized
C#C[C@]1(OC(C)=O)CC[C@H]2[C@@H]3CCC4=CC(=O)CC[C@@H]4[C@H]3CC[C@@]21C [NORETHINDRONE ACETATE] | Compound metabolized

Details: human gut metagenome, 24 h, 2 µM
Remark: another data set of the same source

Structure (SMILES) | Bacterial Biotransformation
CN1[C@@H]2CC[C@H]1C[C@@H](OC(=O)[C@H](CO)c1ccccc1)C2 [HYOSCYAMINE] | Compound metabolized
C#C[C@]1(OC(C)=O)CC[C@H]2[C@@H]3CCC4=CC(=O)CC[C@@H]4[C@H]3CC[C@@]21C [NORETHINDRONE ACETATE] | Compound NOT metabolized

Assay: as §2, with “Z-001” for “Z-018”, “mouse” for “pig”, “ERS12561801” for “ERS12561817”
Details: 2 µM

Structure (SMILES) | Bacterial Biotransformation
CN1[C@@H]2CC[C@H]1C[C@@H](OC(=O)[C@H](CO)c1ccccc1)C2 [HYOSCYAMINE] | Compound NOT metabolized
C#C[C@]1(OC(C)=O)CC[C@H]2[C@@H]3CCC4=CC(=O)CC[C@@H]4[C@H]3CC[C@@]21C [NORETHINDRONE ACETATE] | Compound metabolized

Assay: as §2, with “Z-017” for “Z-018”, “mouse” for “pig”, “ERS12561816” for “ERS12561817”
Details: 2 µM

Structure (SMILES) | Bacterial Biotransformation
CN1[C@@H]2CC[C@H]1C[C@@H](OC(=O)[C@H](CO)c1ccccc1)C2 [HYOSCYAMINE] | Compound NOT metabolized
C#C[C@]1(OC(C)=O)CC[C@H]2[C@@H]3CCC4=CC(=O)CC[C@@H]4[C@H]3CC[C@@]21C [NORETHINDRONE ACETATE] | Compound metabolized

Details: human gut metagenome, 24 h, 2 µM
Remark: another data set of the same source

Structure (SMILES) | Bacterial Biotransformation
CN1[C@@H]2CC[C@H]1C[C@@H](OC(=O)[C@H](CO)c1ccccc1)C2 [HYOSCYAMINE] | Compound NOT metabolized

Details: human gut metagenome, 24 h, 2 µM
Remark: another data set of the same source

Structure (SMILES) | Bacterial Biotransformation
CN1[C@@H]2CC[C@H]1C[C@@H](OC(=O)[C@H](CO)c1ccccc1)C2 [HYOSCYAMINE] | Compound NOT metabolized
C#C[C@]1(OC(C)=O)CC[C@H]2[C@@H]3CCC4=CC(=O)CC[C@@H]4[C@H]3CC[C@@]21C [NORETHINDRONE ACETATE] | Compound metabolized

Assay: as §1, with “Z-005” for “Z-010”, “ERS12561805” for “ERS12561810”
Details: 2 µM

Bacterial Biotransformation | Structure (SMILES)
Compound metabolized | C#C[C@]1(OC(C)=O)CC[C@H]2[C@@H]3CCC4=CC(=O)CC[C@@H]4[C@H]3CC[C@@]21C [NORETHINDRONE ACETATE]

Source: ChEMBL document CHEMBL5724914, “Linking interpersonal differences in gut microbiota composition and drug biotransformation activity” (2024)
